From US20240123079A1 (Seagen Inc., priority 2021, published 2024)
Like-named read-outs stand apart in the source and are kept apart here.

System: THP1-Dual™ reporter cells
Test: THP1-Dual cell reporter assay (IRF-Lucia luciferase reporter)
Type: cell-based, human
Method: THP1-Dual™ Cell Reporter Assay
Potency of compounds and ADCs was evaluated using the THP1-Dual™ cells (InvivoGen PN: thpd-nfis [also referred to as THP1 dual reporter cells]), which contain an IRF-Lucia luciferase reporter. Cells were cultured in RPMI-1640 (Gibco) with 10% heat-inactivated fetal bovine serum, Pen-Strep (100 U/mL-100 μg/mL, Gibco), HEPES (10 mM, Gibco)), sodium pyruvate (1 mM, Gibco), MEM non-essential amino acids (1×, Gibco), GlutaMAX (1×, Gibco), and beta-mercaptoethanol (55 μM, Gibco). Cells were plated in a 96-well flat bottom tissue culture-treated clear polystyrene plate (Corning Costar #3596) at ˜100,000 cells per well in 200 μL with the indicated concentration of the compound or ADC. The supernatant was harvested at 24 hours (compounds) or 48 hours (ADC) post plating for the reporter assay, or as indicated. To measure Lucia reporter signal, 10 μL of the supernatant was combined with 40 μL of QUANTI-Luc™ Luminescence assay reagent (Invivogen PN: rep-qlc1) in a 96-well clear flat bottom tissue culture-treated black polystyrene plate (Corning Costar #3603) and read on a Perkin Elmer Envision plate reader.
STING agonist compounds were assessed for their ability to activate THP1-Dual™ reporter cells, a human monocytic cell line in which type I interferon (IRF) signaling can be monitored via a secreted luciferase reporter protein (Lucia). THP1-Dual™ cells were treated with increasing concentrations of the agonists for 24h, then supernatants were harvested and the Lucia reporter signal was quantified using QUANTI-Luc™ Luminescence assay reagent.

[1] = Homo sapiens, THP1-Dual, free compounds, 24 h, Lucia reporter signal, read-out: EC50
[2] = ADCs: drug linker conjugated to a targeted mAb, 48 h
[3] = free compounds, 24 h, Lucia reporter signal, read-out: EC50

| EC50 [1] [nM] | Structure (SMILES) | further results |
| --- | --- | --- |
| 5.8 | CCn1nc(C)cc1C(=O)Nc1nc2cc(C(N)=O)cc(O)c2n1C/C=C/Cn1c(NC(=O)c2cc(C)nn2CC)nc2cc(C(N)=O)cc(OCCCNC)c21 [Compound 15b] | potency relative to other free compound (free drug): more potent than 12a |
| 12 | CCn1nc(C)cc1C(=O)Nc1nc2cc(S(N)(=O)=O)ccc2n1C/C=C/Cn1c(NC(=O)c2cc(C)nn2CC)nc2cc(C(N)=O)cc(OCCCN(C)C(=O)OC(C)(C)C)c21 [Compound 25f] | – |
| 1580 | CCn1nc(C)cc1C(=O)Nc1nc2cc(S(N)(=O)=O)ccc2n1C/C=C/Cn1c(NC(=O)c2cc(C)nn2CC)nc2cc(C(N)=O)cc(OCCCNC)c21 [Compound 25g] | – |
| 69 | CCn1nc(C)cc1C(=O)Nc1nc2cc(C(N)=O)cc(OC)c2n1C/C=C/Cn1c(NC(=O)c2cc(C)nn2CC)nc2cc(C(N)=O)cc(OCCC3CNC3)c21 [Compound 26f] | – |
| 38 | CCn1nc(C)cc1C(=O)Nc1nc2cc(C(N)=O)cc(OC)c2n1C/C=C/Cn1c(NC(=O)c2cc(C)nn2CC)nc2cc(C(N)=O)cc(OCCCOC3CNC3)c21 [Compound 27f] | – |

Second part, the compound before the results:

| Structure (SMILES) | EC50 [1] [nM] | further results |
| --- | --- | --- |
| CCn1nc(C)cc1C(=O)Nc1nc2cc(C(N)=O)cc(OC)c2n1C/C=C/Cn1c(NC(=O)c2cc(C)nn2CC)nc2cc(C(N)=O)cc(OCCCN(C)C(=O)CCN3C(=O)C=CC3=O)c21 [Compound 12, (E)-1-(4-(5-carbamoyl-2-(1-ethyl-3-methyl-1H-pyrazole-5-carboxamido)-7-methoxy-1H-benzo[d]imidazol-1-yl)but-2-en-1-yl)-7-(3-(3-(2,5-dioxo-2,5-dihydro-1H-pyrrol-1-yl)-N-methylpropanamido)propoxy)-2-(1-ethyl-3-methyl-1H-pyrazole-5-carboxamido)-1H-benzo[d]imidazole-5-carboxamide] | – | EC50 (Homo sapiens, THP1-Dual, 24 h, free compounds, 24 h, Lucia reporter signal, read-out: EC50): 37 nM |
| CCn1nc(C)cc1C(=O)Nc1nc2cc(C(N)=O)cc(OC)c2n1C/C=C/Cn1c(NC(=O)c2cc(C)nn2CC)nc2cc(C(N)=O)cc(OCCCN(C)C(=O)OCc3ccc(O[C@@H]4O[C@H](C(=O)O)[C@@H](O)[C@H](O)[C@H]4O)cc3NC(=O)CCNC(=O)CCN3C(=O)C=CC3=O)c21 [Compound 13] | – | potency of ADC relative to other ADC (conjugated to a targeted mAb, 48 h): more potent |
| CCn1nc(C)cc1C(=O)Nc1nc2cc(C(N)=O)cc(OC)c2n1C/C=C/Cn1c(NC(=O)c2cc(C)nn2CC)nc2cc(C(N)=O)cc(OCCCN(C)C(=O)[C@H](CC(=O)O)NC(=O)CCN3C(=O)C=CC3=O)c21 [Compound 17, (S,E)-4-((3-((5-carbamoyl-1-(4-(5-carbamoyl-2-(1-ethyl-3-methyl-1H-pyrazole-5-carboxamido)-7-methoxy-1H-benzo[d]imidazol-1-yl)but-2-en-1-yl)-2-(1-ethyl-3-methyl1H-pyrazole-5-carboxamido)-1H-benzo[d]imidazol-7-yl)oxy)propyl)(methyl)amino)-3-(3-(2,5-dioxo-2,5-dihydro-1H-pyrrol-1-yl)propanamido)-4-oxobutanoic acid] | 66.3 | EC50 [2]: 0.0022 µg/mL |
| CCn1nc(C)cc1C(=O)Nc1nc2cc(C(N)=O)cc(OC)c2n1C/C=C/Cn1c(NC(=O)c2cc(C)nn2CC)nc2cc(C(N)=O)cc(OCCCN(C)C(=O)[C@H](CO)NC(=O)CCN3C(=O)C=CC3=O)c21 [Compound 24, (S,E)-1-(4-(5-carbamoyl-2-(1-ethyl-3-methyl-1H-pyrazole-5-carboxamido)-7-methoxy-1H-benzo[d]imidazol-1-yl)but-2-en-1-yl)-7-(3-(2-(3-(2,5-dioxo-2,5-dihydro-1H-pyrrol-1-yl)propanamido)-3-hydroxy-N-methylpropanamido)propoxy)-2-(1-ethyl-3-methyl-1H-pyrazole-5-carboxamido)-1H-benzo[d]imidazole-5-carboxamide] | 83.3 | EC50 [2]: 0.0021 µg/mL |
| CCn1nc(C)cc1C(=O)Nc1nc2cc(S(N)(=O)=O)ccc2n1C/C=C/Cn1c(NC(=O)c2cc(C)nn2CC)nc2cc(C(N)=O)cc(OCCCN(C)C(=O)CCN3C(=O)C=CC3=O)c21 [Compound 25, (E)-7-(3-(3-(2,5-dioxo-2,5-dihydro-1H-pyrrol-1-yl)-N-methylpropanamido)propoxy)-2-(1-ethyl-3-methyl-1H-pyrazole-5-carboxamido)-1-(4-(2-(1-ethyl-3-methyl-1H-pyrazole-5-carboxamido)-5-sulfamoyl-1H-benzo[d]imidazol-1-yl)but-2-en-1-yl)-1H-benzo[d]imidazole-5-carboxamide] | – | EC50 [2]: 0.307 µg/mL |
| CCn1nc(C)cc1C(=O)Nc1nc2cc(C(N)=O)cc(OC)c2n1C/C=C/Cn1c(NC(=O)c2cc(C)nn2CC)nc2cc(C(N)=O)cc(OCCC3CN(C(=O)CCN4C(=O)C=CC4=O)C3)c21 [Compound 26, (E)-1-(4-(5-carbamoyl-2-(1-ethyl-3-methyl-1H-pyrazole-5-carboxamido)-7-methoxy-1H-benzo[d]imidazol-1-yl)but-2-en-1-yl)-7-(2-(1-(3-(2,5-dioxo-2,5-dihydro-1H-pyrrol-1-yl)propanoyl)azetidin-3-yl)ethoxy)-2-(1-ethyl-3-methyl-1H-pyrazole-5-carboxamido)-1H-benzo[d]imidazole-5-carboxamide] | – | EC50 [2]: 0.0144 µg/mL |
| CCn1nc(C)cc1C(=O)Nc1nc2cc(C(N)=O)cc(OC)c2n1C/C=C/Cn1c(NC(=O)c2cc(C)nn2CC)nc2cc(C(N)=O)cc(OCCC3CN(C(=O)OC(C)(C)C)C3)c21 [Compound 26e] | – | EC50 [3]: 5 nM |
| CCn1nc(C)cc1C(=O)Nc1nc2cc(C(N)=O)cc(OC)c2n1C/C=C/Cn1c(NC(=O)c2cc(C)nn2CC)nc2cc(C(N)=O)cc(OCCCOC3CN(C(=O)CCN4C(=O)C=CC4=O)C3)c21 [Compound 27, (E)-1-(4-(5-carbamoyl-2-(1-ethyl-3-methyl-1H-pyrazole-5-carboxamido)-7-methoxy-1H-benzo[d]imidazol-1-yl)but-2-en-1-yl)-7-(3-((1-(3-(2,5-dioxo-2,5-dihydro-1H-pyrrol-1-yl)propanoyl)azetidin-3-yl)oxy)propoxy)-2-(1-ethyl-3-methyl-1H-pyrazole-5-carboxamido)-1H-benzo[d]imidazole-5-carboxamide] | – | EC50 [2]: 0.0104 µg/mL |
| CCn1nc(C)cc1C(=O)Nc1nc2cc(C(N)=O)cc(OC)c2n1C/C=C/Cn1c(NC(=O)c2cc(C)nn2CC)nc2cc(C(N)=O)cc(OCCCOC3CN(C(=O)OC(C)(C)C)C3)c21 [Compound 27e] | – | EC50 [3]: 1.3 nM |
| CCn1nc(C)cc1C(=O)Nc1nc2cc(S(N)(=O)=O)ccc2n1C/C=C/Cn1c(NC(=O)c2cc(C)nn2CC)nc2cc(C(N)=O)cc(OCCCN(C)C(=O)CCN3C(=O)CC(SC[C@H](N)C(=O)O)C3=O)c21 (stereo partly drawn) [Compound 28, S-(1-(3-((3-((5-carbamoyl-2-(1-ethyl-3-methyl-1H-pyrazole-5-carboxamido)-1-((E)-4-(2-(1-ethyl-3-methyl-1H-pyrazole-5-carboxamido)-5-sulfamoyl-1H-benzo[d]imidazol-1-yl)but-2-en-1-yl)-1H-benzo[d]imidazol-7-yl)oxy)propyl)(methyl)amino)-3-oxopropyl)-2,5-dioxopyrrolidin-3-yl)-L-cysteine] | 954 | – |
| CCn1nc(C)cc1C(=O)Nc1nc2cc(C(N)=O)cc(OC)c2n1C/C=C/Cn1c(NC(=O)c2cc(C)nn2CC)nc2cc(C(N)=O)cc(OCCC3CN(C(=O)CCN4C(=O)CC(SC[C@H](N)C(=O)O)C4=O)C3)c21 (stereo partly drawn) [Compound 29, S-(1-(3-(3-(2-((5-carbamoyl-1-((E)-4-(5-carbamoyl-2-(1-ethyl-3-methyl-1H-pyrazole-5-carboxamido)-7-methoxy-1H-benzo[d]imidazol-1-yl)but-2-en-1-yl)-2-(1-ethyl-3-methyl-1H-pyrazole-5-carboxamido)-1H-benzo[d]imidazol-7-yl)oxy)ethyl)azetidin-1-yl)-3-oxopropyl)-2,5-dioxopyrrolidin-3-yl)-L-cysteine] | 52 | – |
| CCn1nc(C)cc1C(=O)Nc1nc2cc(C(N)=O)cc(OC)c2n1C/C=C/Cn1c(NC(=O)c2cc(C)nn2CC)nc2cc(C(N)=O)cc(OCCCOC3CN(C(=O)CCN4C(=O)CC(SC[C@H](N)C(=O)O)C4=O)C3)c21 (stereo partly drawn) [Compound 30, S-(1-(3-(3-(3-((5-carbamoyl-1-((E)-4-(s-carbamoyl-2-(1-ethyl-3-methyl-1H-pyrazole-5-carboxamido)-7-methoxy-1H-benzo[d]imidazol-1-yl)but-2-en-1-yl)-2-(1-ethyl-3-methyl-1H-pyrazole-5-carboxamido)-1H-benzo[d]imidazol-7-yl)oxy)propoxy)azetidin-1-yl)-3-oxopropyl)-2,5-dioxopyrrolidin-3-yl)-L-cysteine] | 87 | – |
| CCn1ncc(C)c1C(=O)Nc1nc2cc(C(N)=O)cc(O)c2n1C/C=C/Cn1c(NC(=O)c2c(C)cnn2CC)nc2cc(C(N)=O)cc(OC)c21 [Compound 31] | 176 | – |
| CCn1nc(C(=O)Nc2nc3cc(C(N)=O)cc(O)c3n2C/C=C/Cn2c(NC(=O)c3cc(C)n(CC)n3)nc3cc(C(N)=O)cc(OC)c32)cc1C [Compound 32] | 44.5 | – |
| COc1cc(C(N)=O)cc2nc(NC(=O)c3ccco3)n(C/C=C/Cn3c(NC(=O)c4ccco4)nc4cc(C(N)=O)cc(O)c43)c12 [Compound 33] | > 10000 | – |
| COc1cc(C(N)=O)cc2nc(NC(=O)c3cccs3)n(C/C=C/Cn3c(NC(=O)c4cccs4)nc4cc(C(N)=O)cc(O)c43)c12 [Compound 35] | > 10000 | – |
| CCn1nccc1C(=O)Nc1nc2cc(C(N)=O)cc(O)c2n1C/C=C/Cn1c(NC(=O)c2ccnn2CC)nc2cc(C(N)=O)cc(OC)c21 [Compound 37] | > 10000 | – |
